Measurements: patent US11938106B2, “Treatment of tinnitus using glutamate receptor agonists” (Northeast Ohio Medical University, priority 2016, dated 2024)

Legend:
[1] = test system: inferior colliculus (auditory midbrain); assay: Local field potentials (sound evoked activity) recorded in the IC of awake mice; format: in vivo, mouse; conditions: systemic administration, FIG. 13
Experimental: FIG. 13 provides graphs showing that a group II mGluR agonist enhances of sound evoked activity in the IC. Local field potentials (LFPs) recorded in the IC of awake mice in response to 30 ms wideband noise (1-100 kHz, 80 dB SPL) recorded before, 30 min and 90 min after drug administration. LFPs shown here were generated based on 130 repetitions. SEMs are shown by grey
(§1) The animals used were CBA/CaJ male mice, 8 months to 1.5 years old. Extracellular recording was carried out using Quartz micropipettes filled with 1M potassium acetate solution, 10-20 M ohms. Local field potential (LFP) was evaluated using a chronically implanted 4 channel multi-electrode array chronically implanted into IC in a freely moving animal via wireless recording system. For drug administration, the Group II mGluR agonist was administered via intravenous (3.5 mg/kg) or intraperitoneal (5 mg/kg) injections while recording neural activity. To evaluate startle input/output function, startle intensities were randomized within the range from 70 dB to 120 dB SPL. Startle was a broad band noise 20 ms duration. Inter-trial intervals were pseudo randomized between 15 and 25 sec. For gap detection, two trials were carried out. Trial I—The acoustic startle (110 dB SPL, 20 ms duration, wideband noise) imbedded in continuous background noise (65 dB SPL, third octave, centered at 10, 12.5, 16, 20, 25, and 31.5 kHz). […]

IC neurons = assay: Extracellular recording of neuronal firing in the inferior colliculus of awake mice before, during and after systemic drug injection; format: in vivo, mouse
Experimental: (§2) Adult CBA/CaJ mice were used for the study. […] Injection was performed remotely via an intravenous catheter inserted into the tail vein. Spontaneous firing rates of IC neurons were measured and compared before, during, and after of drug injection. To test whether this drug is affecting general sound processing in the auditory system of mice, the acoustic startle reflex and gap detection performance were also assessed.
The animals used were CBA/CaJ male mice, 8 months to 1.5 years old. Extracellular recording was carried out using Quartz micropipettes filled with 1M potassium acetate solution, 10-20 M ohms. Local field potential (LFP) was evaluated using a chronically implanted 4 channel multi-electrode array chronically implanted into IC in a freely moving animal via wireless recording system. For drug administration, the Group II mGluR agonist was administered via intravenous (3.5 mg/kg) or intraperitoneal (5 mg/kg) injections while recording neural activity. To evaluate startle input/output function, startle intensities were randomized within the range from 70 dB to 120 dB SPL. Startle was a broad band noise 20 ms duration. Inter-trial intervals were pseudo randomized between 15 and 25 sec. For gap detection, two trials were carried out. Trial I—The acoustic startle (110 dB SPL, 20 ms duration, wideband noise) imbedded in continuous background noise (65 dB SPL, third octave, centered at 10, 12.5, 16, 20, 25, and 31.5 kHz). Trial II—Trial I paired with a 20 ms gap embedded into background noise and presented 100 ms before the startle. Inter-trial intervals were pseudo randomized between 10 and 17 sec.

[2] = Gap detection performance (gap-induced suppression of acoustic startle) in mice; format: in vivo, mouse; conditions: 7 mice, FIG. 14B, 30 min after drug administration
Experimental: as §2
as §1, with “out.” for “out. Trial I—The acoustic startle (110 dB SPL, 20 ms duration, wideband noise) imbedded in continuous background noise (65 dB SPL, third octave, centered at 10, 12.5, 16, 20, 25, and 31.5 kHz).”

[3] = Acoustic startle reflex (startle input/output function); format: in vivo, mouse; conditions: in 6 out of 7 mice tested, FIG. 14A, 30 min after drug administration
Experimental: as §2
as §1, with “out.” for “out. Trial I—The acoustic startle (110 dB SPL, 20 ms duration, wideband noise) imbedded in continuous background noise (65 dB SPL, third octave, centered at 10, 12.5, 16, 20, 25, and 31.5 kHz).”

[4] = Gap detection performance for behavioral assessment of tinnitus in the tinnitus mouse model; format: in vivo; conditions: one mouse, FIG. 17
Experimental: Mice were assessed for tinnitus 3 months after exposure. The ability of mice to detect a gap of silence preceding the startle stimulus was determined using commercial hardware/software equipment from Kinder Scientific, Inc. Mice were placed in a small restrainer situated on a plate with a pressure sensor. Any animal motion was detected by the sensor which measured its amplitude and stored data on the computer hard drive. Kinder Scientific software was used to generate a sequence of stimulus trials including a startle stimulus presented alone (STARTLE) and a startle stimulus paired with a gap (GAP+STARTLE) embedded into continuous background noise. The background consisted of narrow-band (1/3 octave) noise centered at six different frequencies (10, 12.5, 16, 20, 25, and 31.5 kHz). […]
Therefore, the data in each session were statistically analyzed to remove outliers (Grubbs' test for outliers). […] To calculate the GAP+STARTLE/STARTLE ratio we calculated the mean for all STARTLE values. […]
The presence of tinnitus in each mouse is assessed by pre-pulse inhibition of the acoustic startle reflex using the procedure developed by Turner et al. Turner et al., Behav Neurosci 120:188-195 (2006). […] The inventor measured the ratio of the startle response amplitude when preceded by a gap of silence over the startle response amplitude without preceded gap. […]

## N[C@@]1(C(=O)O)CC[C@H]2[C@H](C(=O)O)[C@H]21 [LY354740, (1S,2S,5R,6S)-2-Aminobicyclo[3.1.0]hexane-2,6-dicarboxylic acid]
[1]
  effect on sound evoked activity: did not change or slightly increased
IC neurons; injected IV
  duration of suppression of spontaneous activity: several tens of minutes
  time after injection to suppression of spontaneous activity: Several seconds
IC neurons; injected IV, vast majority of IC neurons, awake mice
  effect on spontaneous activity in IC neurons: near complete suppression
IC neurons; single IC neuron, FIG. 12
  time after systemic drug administration at which background firing was suppressed: About 5 min
  time until rate of background activity almost recovered to pre-drug level: about 2 hours
IC neurons; single IC neuron, FIG. 12, systemic administration
  effect on sound-evoked firing: unaffected
IC neurons; systemic activation of group II mGluRs, FIG. 10, 15
  effect on spontaneous activity in auditory neurons: dramatically suppressed
[2]
  effect on gap detection performance: not affected
[3]
  increase of magnitude of startle responses: at least 20%
[4]
  gap detection performance after systemic injection: improvement of gap detection in this mouse to the control level
